Data set [1] concerns prostate cancer cell lines. The data set can be described thus: Cytotoxicity against three prostate cancer cell lines (Example 4). Format: cell-based. The conditions noted are these: chosen concentration range. On the procedure: The product was tested for particle size and cytotoxicity against prostate cancer.
In data set [2] the test system is cancer cells. The conditions noted are these: most effective free Curcumin study results; read-out: free Curcumin concentration to bring about 50% cell death; cited from earlier work.
A short description of data set [3]: Nile Red encapsulation efficiency by Fluorescence Spectroscopy. Format: physicochemical. The conditions noted are these: preliminary polymer-protein aggregates loaded with Nile Red. The source says:
After the formation of polymer-protein Curcumin carrying micelles of a desirable size, there was a clear need to determine the amount of Curcumin actually encapsulated. Preliminary aggregates were loaded with Nile Red dye to act as a makeshift drug and analysed by Fluorescence Spectroscopy. After comparison to a Calibration curve established from analysis of Nile Red concentrations dissolved in DMSO solvent, the intensity was backcalculated to yield a 30.4% encapsulation efficiency.

Data set [4] can be described thus: DLS hydrodynamic diameter of BSA conjugated copolymer (Example 2). It is filed as physicochemical. The conditions noted are these: for PDi: 0.1M PBS pH 7, DLS. On the procedure:
^1H-NMR spectra were acquired to characterised compounds using CDCl3 or d-DMSO with a 300 MHz spectrometer. Thermogravimetric analysis (TGA) was carried out using TG5000 to quantify the amount of platinum conjugated to the copolymers. The sample (≤5 mg) was placed on a thermo-balance and heated from room temperature to 600° C. at 20° C./min, and held for an isothermal period of 60 minutes under nitrogen atmosphere. Diameter size of copolymers in 0.1M PBS buffer pH 7.0 was measured using a Malvern dynamic light scattering instrument (DLS) in a disposable plastic cuvette (1 cm path length). Fluorescence measurements were performed on Agilent Cary Eclipse Fluorescence Spectrometer using a 1 cm quartz cuvette. Fluorescence spectra were recorded between 400-800 nm at λex=495 nm, λem=520 nm with entrance and exit slit width of […]. SDS-PAGE was performed using standard techniques using a premixed electrophoresis buffer which contains 25 mM Tris, 192 mM glycine and 0.1% SDS (Tris/Glycine/SDS buffer) to determine the conjugation efficiency between the BSA-FITC and the copolymer. Samples were prepared for electrophoresis without the use of a reducing agent. The samples were mixed with bromophenol blue (0.01% w/v) solution as the marker. The samples were resolved through a 10% polyacrylamide gel which was performed using a BioRad Mini-Protean II electrophoresis setup at a constant voltage (150 V). The samples were stained using Colloidal Blue Coomassie G-250 (Bio-Rad), and left overnight. Gel images were recorded using a Bio-Rad GS-800 calibrated densitometer. Native BSA was used as a control.
The size and shape of the BSA conjugated copolymer in PBS solution was investigated using DLS and TEM.

The nature of data set [5]: Hydrodynamic diameter and zeta potential of materials and complexes (Example 3). Format: physicochemical. The conditions noted are these: pH 7; ISIS 5132 200 ug/ml, BSA 1 mg/ml, PDMAEMA 0.21 mg/ml. As for the experimental part: The resulting conjugates were dialysed in 0.05 M PBS (pH5) for 12 h by changing solvent every 2 h. […] All the conditions were kept consistent to the corresponding oligonucleotide samples. In addition, the oligonucleotide transfection efficiency of the PEGMEMA-PDMAEAM cationic block copolymer was investigated. The same protocol was adopted to make the polyion complex micelles from this polymer solution.
The condensation of the oligonucleotide was therefore carried out when the conjugate solution was at pH5 and the oligonucleotide was dissolved in MilliQ water. The albumin-polymer conjugates with a pH of 5 was then slowly added to the solutions of ISIS 5132 with the concentration of 200 μg/ml (ζ=−29.87 mV at pH7). […] After the complex micelle was stable, the system was brought back to pH7. There are several reasons for this: to reduce the aggregation of the micelle, to protect the oligonucleotide and to keep the neutral environment for cells in the afterward cytotoxicity assays.

pIC50: −log10 of the molar value. Oligonucleotides are written 5' to 3', each unit as a sugar letter and its base; * is a phosphorothioate linkage, no mark a phosphodiester; rarer units and linkages stand in square brackets, end groups in braces. Plain capitals give the bases only. d = 2'-deoxy (DNA)

Turning to `COc1cc(/C=C/C(=O)CC(=O)/C=C/c2ccc(O)c(OC)c2)ccc1O` [Curcumin], the toxicity entry in data set [1] is reported as “only negligible toxicity”. The pIC50 in data set [2] is 5.00. Consider `CCN(CC)c1ccc2nc3c4ccccc4c(=O)cc-3oc2c1` [Nile Red], for which the “Nile Red encapsulation efficiency” value in data set [3] was 30.4%. BSA-FITC: the “Dh number (d/nm)” value in data set [4] (0.1M PBS pH 7, 25° C.) stood at 7.44 nm. Besides, in data set [4], the PDi came out at 0.58. As to “ISIS 5132: 20-base antisense phosphorothioate oligodeoxyribonucleotide: 5′TCCCGCCTGTGACATGCATT3′ (DNA dT*dC*dC*dC*dG*dC*dC*dT*dG*dT*dG*dA*dC*dA*dT*dG*dC*dA*dT*dT)”, in data set [5], the Dh was 0-107 nm and the Zeta potential is −29.87 mV. Turning to P(HPMA13-co-[(AC-DAP)9-Pt8]), in data set [4], the PDi was found to be 0.14.

The values are drawn from patent US10251958B2 (NEWSOUTH INNOVATIONS PTY LIMITED, priority 2013, dated 2019).
